Results reported in BindingDB's records for doi:10.1111/j.1747-0285.2008.00638.x (Mcgill University/Royal Victoria Hospital, 2008).

biological target: Epidermal growth factor receptor (Homo sapiens, UniProt P00533); experiment: Kinase Enzyme Assay; settings: 37 °C
Text: EGFR kinase assay was perform using Nunc MaxiSorp purchased from Nalge Nunc Interantional.

Sequence of Epidermal growth factor receptor (P00533 whole entry): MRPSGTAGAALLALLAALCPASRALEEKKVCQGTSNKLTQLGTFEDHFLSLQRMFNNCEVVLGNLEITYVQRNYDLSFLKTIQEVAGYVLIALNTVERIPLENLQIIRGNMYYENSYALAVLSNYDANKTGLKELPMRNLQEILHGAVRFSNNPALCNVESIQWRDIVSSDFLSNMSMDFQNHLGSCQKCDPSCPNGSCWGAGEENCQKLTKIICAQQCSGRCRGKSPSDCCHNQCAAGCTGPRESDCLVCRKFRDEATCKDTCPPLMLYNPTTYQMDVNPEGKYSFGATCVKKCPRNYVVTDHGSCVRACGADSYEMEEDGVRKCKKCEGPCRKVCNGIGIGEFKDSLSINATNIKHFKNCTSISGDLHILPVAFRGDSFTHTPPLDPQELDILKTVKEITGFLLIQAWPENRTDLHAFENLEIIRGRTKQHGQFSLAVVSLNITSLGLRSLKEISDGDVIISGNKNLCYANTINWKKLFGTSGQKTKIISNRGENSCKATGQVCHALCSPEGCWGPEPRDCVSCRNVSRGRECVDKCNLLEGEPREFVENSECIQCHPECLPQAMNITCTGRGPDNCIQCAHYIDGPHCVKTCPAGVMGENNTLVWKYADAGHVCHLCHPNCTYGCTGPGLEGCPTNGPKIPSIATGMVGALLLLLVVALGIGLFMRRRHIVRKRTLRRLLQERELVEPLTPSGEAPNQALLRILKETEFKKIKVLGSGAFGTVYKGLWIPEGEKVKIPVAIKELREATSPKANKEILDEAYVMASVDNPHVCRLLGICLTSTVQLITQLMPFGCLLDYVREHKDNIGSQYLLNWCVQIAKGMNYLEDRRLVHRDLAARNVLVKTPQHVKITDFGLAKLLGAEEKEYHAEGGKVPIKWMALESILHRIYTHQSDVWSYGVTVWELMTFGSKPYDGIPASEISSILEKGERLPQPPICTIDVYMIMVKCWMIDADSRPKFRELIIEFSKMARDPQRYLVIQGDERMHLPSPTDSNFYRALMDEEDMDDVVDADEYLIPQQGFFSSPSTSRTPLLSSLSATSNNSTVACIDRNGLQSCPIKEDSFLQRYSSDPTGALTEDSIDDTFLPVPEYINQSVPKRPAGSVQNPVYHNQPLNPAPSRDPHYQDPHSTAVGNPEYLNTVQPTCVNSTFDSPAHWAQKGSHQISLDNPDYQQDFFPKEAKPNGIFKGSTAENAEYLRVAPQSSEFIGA

IC50 | Structure (SMILES)
950 nM | Cc1cccc(Nc2ncnc3ccc(/N=N/N(C)CCN(CCN4CCOCC4)CCN(C)/N=N/c4ccc5ncnc(Nc6cccc(C)c6)c5c4)cc23)c1 [Bis-quinazolinotriazene, 5a]
120 nM | CN(CCN(CCN1CCOCC1)CCN(C)/N=N/c1ccc2ncnc(Nc3cccc(Br)c3)c2c1)/N=N/c1ccc2ncnc(Nc3cccc(Br)c3)c2c1 [Bis-quinazolinotriazene, 5b]
150 nM | CN(CCN(CCN1CCOCC1)CCN(C)/N=N/c1ccc2ncnc(Nc3cccc(Cl)c3)c2c1)/N=N/c1ccc2ncnc(Nc3cccc(Cl)c3)c2c1 [Bis-quinazolinotriazene, 5c]
